We go through one compound from ChEMBL document CHEMBL3286379, “Design and synthesis of pyrimidine molecules endowed with thiazolidin-4-one as new anticancer agents” (Eur J Med Chem, 2014).

Series [1] concerns Rattus norvegicus. Put plainly: Hepatotoxicity in rat assessed as SGOT level at 0.12 mg/kg, po after 12 days (reference value: 140.23 +/- 1.39 U/mL). Format: toxicity, organism-based. Details: dose 0.12 mg/kg, route oral. Particulars: in vivo, 288 h.
The test system of series [2] is Rattus norvegicus. Put plainly: Hepatotoxicity in rat assessed as SGPT level at 0.12 mg/kg, po after 12 days (reference value: 31.17 +/- 0.39 U/mL). Format: toxicity, organism-based. Details: dose 0.12 mg/kg, route oral. As to conditions: in vivo, 288 h.

Consider `O=c1[nH]cc(F)c(=O)[nH]1` [FLUOROURACIL], for which the Activity is reported as 151.21 U/ml in the series on Rattus norvegicus [1] and 32.75 U/ml with Rattus norvegicus [2].
